ChEMBL document CHEMBL1140582, “Development of CXCR3 antagonists. Part 2: Identification of 2-amino(4-piperidinyl)azoles as potent CXCR3 antagonists” (Bioorg Med Chem Lett, 2007)
Values after ≈ are worked out from the molar mass of the structure shown.

Key:
[1] = target: T1, C-X-C chemokine receptor type 3 (Homo sapiens, UniProt P49682); assay: Binding affinity to human CXCR3 receptor expressed in CHO membrane by ITAC-stimulated GTP gammaS assay; format: cell membranes
T1 sequence (P49682 whole entry): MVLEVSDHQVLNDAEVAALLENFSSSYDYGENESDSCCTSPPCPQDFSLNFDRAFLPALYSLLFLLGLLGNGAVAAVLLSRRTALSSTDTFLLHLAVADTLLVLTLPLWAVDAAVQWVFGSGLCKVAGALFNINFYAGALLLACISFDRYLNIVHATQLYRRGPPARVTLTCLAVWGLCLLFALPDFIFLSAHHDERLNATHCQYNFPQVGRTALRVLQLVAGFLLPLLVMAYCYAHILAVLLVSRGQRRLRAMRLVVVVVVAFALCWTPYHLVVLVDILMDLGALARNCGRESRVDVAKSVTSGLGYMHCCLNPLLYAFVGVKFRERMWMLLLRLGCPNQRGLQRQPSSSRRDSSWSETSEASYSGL

[2] = Partition coefficient, log D at pH 7.4; conditions: octanol/water
[3] = Intrinsic clearance in mouse microsomes at 0.5 uM; format: ADME, Microsome
Homo sapiens = organism: Homo sapiens; assay: Protein binding in human plasma; conditions: read-out: PPB (converted)
[4] = Clearance in mouse plasma at 10 mg/kg, po; format: ADME, organism-based; set-up: dose 10 mg/kg, route oral
[5] = Solubility of the compound; format: physicochemical
Cytochrome P450 2D6 = Cytochrome P450 2D6 (Homo sapiens, UniProt P10635); assay: Inhibition of CYP2D6; format: ADME
Sequence of Cytochrome P450 2D6 (P10635 whole entry): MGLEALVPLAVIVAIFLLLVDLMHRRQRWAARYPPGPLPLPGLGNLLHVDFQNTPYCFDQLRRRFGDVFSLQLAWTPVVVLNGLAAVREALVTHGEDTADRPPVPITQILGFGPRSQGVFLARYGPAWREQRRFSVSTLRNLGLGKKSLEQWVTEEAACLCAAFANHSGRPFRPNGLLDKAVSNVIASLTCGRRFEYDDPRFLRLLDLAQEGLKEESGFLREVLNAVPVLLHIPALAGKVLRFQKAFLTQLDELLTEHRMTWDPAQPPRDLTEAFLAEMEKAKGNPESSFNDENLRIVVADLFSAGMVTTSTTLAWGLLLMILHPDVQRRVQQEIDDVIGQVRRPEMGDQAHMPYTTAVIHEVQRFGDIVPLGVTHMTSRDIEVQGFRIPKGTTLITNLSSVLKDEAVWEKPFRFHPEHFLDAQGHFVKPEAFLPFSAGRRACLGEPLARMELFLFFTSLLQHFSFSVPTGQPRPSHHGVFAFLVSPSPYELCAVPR

[6] = Half life in mouse at 10 mg/kg, po; format: ADME, organism-based; set-up: dose 10 mg/kg, route oral; conditions: in vivo
[7] = Cmax in mouse; format: ADME, organism-based; conditions: in vivo
[8] = AUC in mouse; format: ADME, organism-based; conditions: plasma
CYP2D6 = CYP2D6 (Homo sapiens, UniProt P10635); assay: Inhibition of CYP2D6 at 50 uM; format: ADME
Sequence of CYP2D6 (P10635 whole entry): as above

[9] = target: T2, C-X-C chemokine receptor type 3 (Homo sapiens) (UniProt P49682); assay: Inhibition of human CXCR3 expressed in CHO membrane at 10 uM by ITAC-stimulated GTP gammaS assay; format: cell membranes
T2 sequence (whole entry): T1 sequence (P49682 whole entry)

| Ki [1] | logD [2] | clearance [3] | Structure (SMILES) | other results |
| --- | --- | --- | --- | --- |
| 750 nM | 5 | 230 µL/min/mg | CSc1cccc(N2C(=O)CN(C3CCN(CC4=CC[C@H]5C[C@@H]4C5(C)C)CC3)C2=O)c1 |  |
| 380 nM | 4.7 | 190 µL/min/mg | CCc1cccc(N2C(=O)CN(C3CCN(CC4=CC[C@H]5C[C@@H]4C5(C)C)CC3)C2=O)c1 |  |
| 270 nM | 5 | 16 µL/min/mg | CC1(C)[C@H]2CC=C(CN3CCC(Nc4nc(-c5cc(C(F)(F)F)cc(C(F)(F)F)c5)ns4)CC3)[C@@H]1C2 | fraction unbound (Homo sapiens): 0.003; CL/F [4]: 2.8 mL/min/kg; solubility [5]: 2.7 µg/mL (≈ 5.09 µM); Activity (Cytochrome P450 2D6): 15 µM; half-life [6]: 5.4 h; Cmax [7]: 2010 ng/mL; AUC [8]: 10800 ng·h/mL |
| 260 nM | > 5 | 34 µL/min/mg | CC1(C)[C@H]2CC=C(CN3CCC(Nc4nc(-c5cc(C(F)(F)F)cc(C(F)(F)F)c5)cs4)CC3)[C@@H]1C2 | inhibition at 50 µM (CYP2D6): < 20% |
| 130 nM | > 5 | 150 µL/min/mg | CC1(C)[C@H]2CC=C(CN3CCC(Nc4nc5ccc(Br)cc5s4)CC3)[C@@H]1C2 | Activity (Cytochrome P450 2D6): 0.7 µM |
| 3500 nM |  |  | CCc1cccc(N(C)C(=O)NC2CCN(CC3=CC[C@H]4C[C@@H]3C4(C)C)CC2)c1 |  |
| 100 nM | 4.85 | 290 µL/min/mg | CC1(C)[C@H]2CC=C(CN3CCC(N4CC(=O)N(c5cc(F)cc(C(F)(F)F)c5)C4=O)CC3)[C@@H]1C2 |  |
|  | 3.4 |  | CC(=O)c1cccc(N2C(=O)CN(C3CCN(CC4=CC[C@H]5C[C@@H]4C5(C)C)CC3)C2=O)c1 | inhibition [9]: < 20% |
| 170 nM | > 5.5 | 7 µL/min/mg | CC1(C)[C@H]2CC=C(CN3CCC(N4CCN(c5cc(C(F)(F)F)cc(C(F)(F)F)c5)C4=O)CC3)[C@@H]1C2 |  |
|  |  |  | CC1(C)[C@H]2CC=C(CN3CCC(N(Cc4ccccc4)C(=O)Nc4cccc(C(F)(F)F)c4)CC3)[C@@H]1C2 | inhibition [9]: < 20% |
| 350 nM | > 5 | 1 µL/min/mg | CC1(C)[C@H]2CC=C(CN3CCC(Nc4nc5ccccc5s4)CC3)[C@@H]1C2 | Activity (Cytochrome P450 2D6): 13 µM |
| 460 nM | > 5 |  | CC1(C)[C@H]2CC=C(CN3CCC(Nc4nc(-c5ccc(Cl)c(Cl)c5)cs4)CC3)[C@@H]1C2 | inhibition at 50 µM (CYP2D6): < 20% |
| 680 nM |  |  | CC1(C)[C@H]2CC=C(CN3CCC(Nc4nc5ccccc5o4)CC3)[C@@H]1C2 |  |
| 3600 nM |  |  | CCN(C(=O)Nc1cccc(C(F)(F)F)c1)C1CCN(CC2=CC[C@H]3C[C@@H]2C3(C)C)CC1 |  |
| 220 nM | 4.6 | 318 µL/min/mg | CC1(C)[C@H]2CC=C(CN3CCC(N4CC(=O)N(c5cccc(C(F)(F)F)c5)C4=O)CC3)[C@@H]1C2 |  |
| 120 nM | 5.3 | 280 µL/min/mg | CC1(C)[C@H]2CC=C(CN3CCC(N4CC(=O)N(c5ccc(Cl)c(C(F)(F)F)c5)C4=O)CC3)[C@@H]1C2 |  |
| 880 nM | 4.7 |  | CC1(C)[C@H]2CC=C(CN3CCC(Nc4nc(-c5ccccc5)cs4)CC3)[C@@H]1C2 | inhibition at 50 µM (CYP2D6): < 20% |
| 150 nM | > 5 | 140 µL/min/mg | CC1(C)[C@H]2CC=C(CN3CCC(Nc4nc5c(Br)cccc5s4)CC3)[C@@H]1C2 | Activity (Cytochrome P450 2D6): 1.2 µM |
| 180 nM |  |  | CN(C(=O)Nc1cccc(C(F)(F)F)c1)C1CCN(CC2=CC[C@H]3C[C@@H]2C3(C)C)CC1 |  |
| 26 nM | > 5.5 | 220 µL/min/mg | CC1(C)[C@H]2CC=C(CN3CCC(N4CC(=O)N(c5cc(C(F)(F)F)cc(C(F)(F)F)c5)C4=O)CC3)[C@@H]1C2 |  |
| 200 nM | 4.6 | 88 µL/min/mg | CC1(C)[C@H]2CC=C(CN3CCC(N4CCN(c5cc(F)cc(C(F)(F)F)c5)C4=O)CC3)[C@@H]1C2 |  |

| Structure (SMILES) | Ki [1] | logD [2] | clearance [3] | other results |
| --- | --- | --- | --- | --- |
| CN(c1nc2cccc(Cl)c2s1)C1CCN(CC2=CC[C@H]3C[C@@H]2C3(C)C)CC1 | 620 nM | > 5 |  | Activity (Cytochrome P450 2D6): 4.1 µM |
| CN(c1nc2ccccc2[nH]1)C1CCN(CC2=CC[C@H]3C[C@@H]2C3(C)C)CC1 | 950 nM | 4.2 |  |  |
| CN(c1nc2ccccc2o1)C1CCN(CC2=CC[C@H]3C[C@@H]2C3(C)C)CC1 | 720 nM | 4.6 |  |  |
| CN(c1nc2c(Cl)cccc2s1)C1CCN(CC2=CC[C@H]3C[C@@H]2C3(C)C)CC1 | 460 nM | 5 |  |  |
| CN(c1nc2ccc(Cl)cc2s1)C1CCN(CC2=CC[C@H]3C[C@@H]2C3(C)C)CC1 | 170 nM | 5 | 48 µL/min/mg | Activity (Cytochrome P450 2D6): 7.3 µM |
| CN(c1nc2cc(Cl)ccc2s1)C1CCN(CC2=CC[C@H]3C[C@@H]2C3(C)C)CC1 | 290 nM | 5 | 41 µL/min/mg | Activity (Cytochrome P450 2D6): 3.5 µM |
| CN(c1nc2ccccc2s1)C1CCN(CC2=CC[C@H]3C[C@@H]2C3(C)C)CC1 | 140 nM | > 5 | 78 µL/min/mg | Activity (Cytochrome P450 2D6): 2.2 µM |
